One block for each molecule: values may come before it.
Tested on: 996289-038-R-J1-PDC spheroid viability
Test: Anticancer human tumor 996289-038-R-J1-PDC patient-derived colon adenocarcinoma cell line growth inhibition [PI3K]
Settings: spheroids with HUVEC and MSC; for IC50: curve of first compound; for viability, T/C: stronger effect = lower value
Procedure, shortened: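 Complex 3D spheroids (cancer cells + endothelial HUVEC + mesenchymal stem cells); drug pairs of targeted agent x inavolisib/alpelisib/duvelisib/copanlisib; half-log series from ~Cmax, max 10 microM if Cmax unknown; endpoint viability.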

[1] = second compound 0.0316 µM, first compound 0.000316 µM
[2] = second compound 0.0316 µM, first compound 0.001 µM
[3] = second compound 0.0316 µM, first compound 0.00316 µM
[4] = second compound 0.0316 µM, first compound 0.01 µM
[5] = second compound 0.0316 µM, first compound 0.0316 µM
[6] = second compound 0.0316 µM, first compound 0.1 µM
[7] = second compound 0.1 µM, first compound 0.000316 µM
[8] = second compound 0.1 µM, first compound 0.001 µM
[9] = second compound 0.1 µM, first compound 0.00316 µM
[10] = second compound 0.1 µM, first compound 0.01 µM
[11] = second compound 0.1 µM, first compound 0.0316 µM
[12] = second compound 0.1 µM, first compound 0.1 µM
[13] = second compound 0.316 µM, first compound 0.000316 µM
[14] = second compound 0.316 µM, first compound 0.001 µM
[15] = second compound 0.316 µM, first compound 0.00316 µM
[16] = second compound 0.316 µM, first compound 0.01 µM
[17] = second compound 0.316 µM, first compound 0.0316 µM
[18] = second compound 0.316 µM, first compound 0.1 µM
[19] = second compound 1 µM, first compound 0.000316 µM
[20] = second compound 1 µM, first compound 0.001 µM
[21] = second compound 1 µM, first compound 0.00316 µM
[22] = second compound 1 µM, first compound 0.01 µM
[23] = second compound 1 µM, first compound 0.0316 µM
[24] = second compound 1 µM, first compound 0.1 µM
[25] = second compound 3.16 µM, first compound 0.00316 µM
[26] = second compound 3.16 µM, first compound 0.01 µM
[27] = second compound 3.16 µM, first compound 0.0316 µM
[28] = second compound 3.16 µM, first compound 0.1 µM
[29] = second compound 10 µM, first compound 0.00316 µM
[30] = second compound 10 µM, first compound 0.01 µM
[31] = second compound 10 µM, first compound 0.0316 µM
[32] = second compound 10 µM, first compound 0.1 µM
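Further: spheroids exposed to compounds for seven days before viability read.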
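Wherever viability, T/C is given: luminescence used as a proxy for viable cell amount; percent viability relative to DMSO vehicle control as 100%.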

IC50 (second compound 0.00316 µM): 54.7 nM
IC50 (second compound 0.01 µM): 49.6 nM
IC50 (second compound 0.0316 µM): 31.6 nM
IC50 (second compound 0.1 µM): 7.59 nM
IC50 (second compound 0.316 µM): < 0.316 nM
IC50 (second compound 1 µM): < 0.316 nM
SMILES: CC(C)n1nc(-c2ccc3oc(N)nc3c2)c2c(N)ncnc21 + COc1c(OCCCN2CCOCC2)ccc2c3n(c(=NC(=O)c4cnc(N)nc4)nc12)CCN3
viability, T/C (second compound 0.00316 µM, first compound 0.000316 µM): 92%
viability, T/C (second compound 0.00316 µM, first compound 0.001 µM): 81.8%
viability, T/C (second compound 0.00316 µM, first compound 0.00316 µM): 83.2%
viability, T/C (second compound 0.00316 µM, first compound 0.01 µM): 81.4%
viability, T/C (second compound 0.00316 µM, first compound 0.0316 µM): 63.5%
viability, T/C (second compound 0.00316 µM, first compound 0.1 µM): 34.5%
viability, T/C (second compound 0.01 µM, first compound 0.000316 µM): 92.1%
viability, T/C (second compound 0.01 µM, first compound 0.001 µM): 79.2%
viability, T/C (second compound 0.01 µM, first compound 0.00316 µM): 91.3%
viability, T/C (second compound 0.01 µM, first compound 0.01 µM): 82.8%
viability, T/C (second compound 0.01 µM, first compound 0.0316 µM): 65.7%
viability, T/C (second compound 0.01 µM, first compound 0.1 µM): 25.6%
viability, T/C [1]: 69%
viability, T/C [2]: 73.7%
viability, T/C [3]: 77.9%
viability, T/C [4]: 68.3%
viability, T/C [5]: 50.2%
viability, T/C [6]: 25.1%
viability, T/C [7]: 59.1%
viability, T/C [8]: 56.6%
viability, T/C [9]: 54.1%
viability, T/C [10]: 48.3%
viability, T/C [11]: 37.8%
viability, T/C [12]: 16.1%
viability, T/C [13]: 34.8%
viability, T/C [14]: 32.9%
viability, T/C [15]: 29.9%
viability, T/C [16]: 35%
viability, T/C [17]: 24.9%
viability, T/C [18]: 10.9%
viability, T/C [19]: 20.9%
viability, T/C [20]: 16.9%
viability, T/C [21]: 16.4%
viability, T/C [22]: 16.6%
viability, T/C [23]: 14.4%
viability, T/C [24]: 10.3%

IC50 (second compound 0.0316 µM): 80.1 nM
IC50 (second compound 0.1 µM): 62 nM
IC50 (second compound 0.316 µM): 64.9 nM
IC50 (second compound 1 µM): 58 nM
IC50 (second compound 3.16 µM): 71.7 nM
IC50 (second compound 10 µM): 62.9 nM
SMILES: CC(C)n1nc(-c2ccc3oc(N)nc3c2)c2c(N)ncnc21 + CC(Nc1ncnc2nc[nH]c12)c1cc2cccc(Cl)c2c(=O)n1-c1ccccc1
viability, T/C [1]: 107%
viability, T/C [2]: 88.6%
viability, T/C [3]: 97.6%
viability, T/C [4]: 86.7%
viability, T/C [5]: 82.7%
viability, T/C [6]: 42.3%
viability, T/C [7]: 124%
viability, T/C [8]: 96.5%
viability, T/C [9]: 96.1%
viability, T/C [10]: 95.8%
viability, T/C [11]: 70.8%
viability, T/C [12]: 34.5%
viability, T/C [13]: 105%
viability, T/C [14]: 87.4%
viability, T/C [15]: 84.6%
viability, T/C [16]: 87.3%
viability, T/C [17]: 73.9%
viability, T/C [18]: 36.2%
viability, T/C [19]: 98.4%
viability, T/C [20]: 97.9%
viability, T/C [21]: 85.9%
viability, T/C [22]: 84.6%
viability, T/C [23]: 65.7%
viability, T/C [24]: 35.9%
viability, T/C (second compound 3.16 µM, first compound 0.000316 µM): 87.5%
viability, T/C (second compound 3.16 µM, first compound 0.001 µM): 87.5%
viability, T/C [25]: 86.2%
viability, T/C [26]: 89.5%
viability, T/C [27]: 76.8%
viability, T/C [28]: 38.9%
viability, T/C (second compound 10 µM, first compound 0.000316 µM): 85%
viability, T/C (second compound 10 µM, first compound 0.001 µM): 82%
viability, T/C [29]: 82.9%
viability, T/C [30]: 79%
viability, T/C [31]: 68.8%
viability, T/C [32]: 37.2%

IC50 (second compound 0.0316 µM): > 1000 nM
IC50 (second compound 0.1 µM): > 1000 nM
IC50 (second compound 0.316 µM): > 1000 nM
IC50 (second compound 1 µM): > 1000 nM
IC50 (second compound 3.16 µM): > 1000 nM
IC50 (second compound 10 µM): > 1000 nM
SMILES: CCN1CCN(Cc2ccc(Nc3ncc(F)c(-c4cc(F)c5nc(C)n(C(C)C)c5c4)n3)nc2)CC1 + CC(Nc1ncnc2nc[nH]c12)c1cc2cccc(Cl)c2c(=O)n1-c1ccccc1
viability, T/C [3]: 111%
viability, T/C [4]: 94.2%
viability, T/C [5]: 92.2%
viability, T/C [6]: 87.1%
viability, T/C (second compound 0.0316 µM, first compound 0.316 µM): 79%
viability, T/C (second compound 0.0316 µM, first compound 1 µM): 74.1%
viability, T/C [9]: 102%
viability, T/C [10]: 96.4%
viability, T/C [11]: 91.8%
viability, T/C [12]: 86.7%
viability, T/C (second compound 0.1 µM, first compound 0.316 µM): 76.7%
viability, T/C (second compound 0.1 µM, first compound 1 µM): 80%
viability, T/C [15]: 96.2%
viability, T/C [16]: 93.7%
viability, T/C [17]: 89.1%
viability, T/C [18]: 80.3%
viability, T/C (second compound 0.316 µM, first compound 0.316 µM): 75%
viability, T/C (second compound 0.316 µM, first compound 1 µM): 80.4%
viability, T/C [21]: 104%
viability, T/C [22]: 88.5%
viability, T/C [23]: 86%
viability, T/C [24]: 79.8%
viability, T/C (second compound 1 µM, first compound 0.316 µM): 76.8%
viability, T/C (second compound 1 µM, first compound 1 µM): 70.7%
viability, T/C [25]: 98.1%
viability, T/C [26]: 105%
viability, T/C [27]: 79.4%
viability, T/C [28]: 86.6%
viability, T/C (second compound 3.16 µM, first compound 0.316 µM): 81%
viability, T/C (second compound 3.16 µM, first compound 1 µM): 68.8%
viability, T/C [29]: 82%
viability, T/C [30]: 76%
viability, T/C [31]: 82.4%
viability, T/C [32]: 74.3%
viability, T/C (second compound 10 µM, first compound 0.316 µM): 71%
viability, T/C (second compound 10 µM, first compound 1 µM): 58.6%

SMILES: Cc1nc(NC(=O)N2CCCC2C(N)=O)sc1-c1ccnc(C(C)(C)C(F)(F)F)c1 (configuration not stated)
viability, T/C (compound 0.0316 µM): 99.9% [middle of 8 runs]
viability, T/C (compound 0.1 µM): 94.7% [middle of 8 runs]
viability, T/C (compound 0.316 µM): 85.8% [middle of 8 runs]
viability, T/C (compound 1 µM): 73.9% [middle of 8 runs]
viability, T/C (compound 3.16 µM): 61.8% [middle of 8 runs]
viability, T/C (compound 10 µM): 52.6% [middle of 8 runs]

— PubChem BioAssay AID1963965 (Molecular Pharmacology Branch, DTP, NCI, 2024)
